# Results taken from EPA's ToxRefDB 2.
# Assays:
# rat [1] = settings: Subchronic oral toxicity in rodents, Gavage/Intubation, dose end: 64 day, group: systemic, systemic / in life observation / body weight / body weight + systemic / in life observation / clinical signs / motor activity + systemic / …
# rat [2] = settings: Prenatal developmental toxicity study, Oral, Gavage/Intubation, dose end: 18 GD
# rat [3] = settings: Sub-acute repeat dose toxicity, sprague dawley, Oral, Gavage/Intubation, dose end: 22 day, group: systemic
# rat [4] = settings: Combined chronic toxicity/carcinogenicity; sprague dawley; Oral; Feed; dose end: 104 week; group: systemic; systemic / in life observation / body weight / body weight + systemic / in life observation / body weight / body weight gain + systemic / in…
# rat [5] = settings: Subchronic oral toxicity in rodents, sprague dawley, Feed, dose end: 13 week, group: systemic
# mouse = settings: Carcinogenicity; cd1; Oral; Feed; dose end: 78 week; group: systemic; systemic / in life observation / body weight / body weight + systemic / in life observation / body weight / body weight gain
# dog = settings: Sub-acute repeat dose toxicity; beagle; Inhalation; Whole-Body; dose end: 14 day; group: systemic; systemic / in life observation / food consumption / food consumption + systemic / pathology microscopic / nose / [other] + systemic / …
# rat [6] = settings: Sub-acute repeat dose toxicity; Inhalation; Whole-Body; dose end: 14 day; group: systemic; systemic / hematology / blood clotting / blood clotting - activated partial thromboplastin time + systemic / in life observation / body …
# primate [7] = settings: Subchronic oral toxicity in nonrodent, Gavage/Intubation, dose end: 48 day, group: systemic
# primate [8] = settings: Sub-acute repeat dose toxicity; Oral; Gavage/Intubation; dose end: 5 day; group: systemic; systemic / in life observation / clinical signs / emesis + systemic / in life observation / food consumption / food consumption
# rat [9] = settings: Sub-acute repeat dose toxicity, sprague dawley, Oral, Gavage/Intubation, dose end: 14 day, group: systemic
# rat [10] = settings: Fertility (Segment I), sprague dawley, Oral, Gavage/Intubation, dose end: 1 generation, group: parental
# rat [11] = settings: Sub-acute repeat dose toxicity, sprague dawley, Oral, Gavage/Intubation, dose end: 12 day, group: systemic
# rat [12] = settings: Prenatal developmental toxicity study, sprague dawley, Oral, Gavage/Intubation, dose end: 18 GD
# primate [13] = settings: Sub-acute repeat dose toxicity, Oral, Gavage/Intubation, dose end: 9 day, group: systemic
# rabbit [14] = settings: Sub-acute repeat dose toxicity, new zealand white, Oral, Gavage/Intubation, dose end: 13 day
# rabbit [15] = settings: Prenatal developmental toxicity study; new zealand white; Oral; Gavage/Intubation; dose end: 19 GD; group: maternal; systemic / in life observation / body weight / body weight gain + systemic / in life observation / clinical signs / reduced activity + …
# rat [16] = settings: Subchronic oral toxicity in rodents, sprague dawley, Gavage/Intubation, dose end: 42 day, group: systemic
# primate [17] = settings: Subchronic oral toxicity in nonrodent, Gavage/Intubation, dose end: 42 day, group: systemic, systemic / in life observation / body weight / body weight + systemic / in life observation / clinical signs / emesis + systemic / in life …
# rabbit [18] = settings: Sub-acute repeat dose toxicity, Oral, Gavage/Intubation, dose end: 5 day, group: systemic
# rat [19] = settings: Fertility (Segment I), sprague dawley, Oral, Gavage/Intubation, dose end: 1 generation, group: parental; remark: listed apart in the source
# rat [20] = settings: Sub-acute repeat dose toxicity, sprague dawley, Oral, Gavage/Intubation, dose end: 4 week, group: systemic
# rabbit [21] = settings: Prenatal developmental toxicity study, himalayan, Oral, Gavage/Intubation, dose end: 18 GD, group: maternal
# rat [22] = settings: Prenatal developmental toxicity study, sprague dawley, Oral, Gavage/Intubation, dose end: 17 GD
# [23] = group: developmental, developmental / developmental malformation / bone / fused + developmental / developmental malformation / bone / delayed ossification + …
# [24] = group: maternal, systemic / in life observation / body weight / body weight + systemic / in life observation / body weight / body weight gain + systemic / in…
# [25] = group: maternal, systemic / in life observation / body weight / body weight gain + systemic / in life observation / food consumption / food consumption
# [26] = systemic / in life observation / body weight / body weight + systemic / in life observation / body weight / body weight gain + systemic / in…
# [27] = systemic / in life observation / body weight / body weight gain
# [28] = systemic / in life observation / clinical signs / emesis + systemic / pathology microscopic / peritoneum / atrophy
# [29] = systemic / in life observation / clinical signs / emesis + systemic / pathology microscopic / peritoneum / atrophy + systemic / in life …
# [30] = systemic / in life observation / food consumption / food consumption
# [31] = systemic / in life observation / food consumption / food consumption + systemic / pathology gross / intestine large / dilatation + systemic…
# [32] = systemic / in life observation / body weight / body weight + systemic / in life observation / clinical signs / altered breathing rate + …
# [33] = systemic / in life observation / body weight / body weight gain + systemic / in life observation / clinical signs / respiration (rales) + …
# [34] = systemic / in life observation / body weight / body weight gain + systemic / in life observation / clinical signs / salivation + systemic / …
# [35] = group: developmental, developmental / developmental malformation / eye / anophthalmia + developmental / developmental malformation / eye / microphthalmia + …
# [36] = systemic / hematology / lymphocyte / lymphocyte
# [37] = systemic / in life observation / clinical signs / emesis + systemic / in life observation / clinical signs / salivation + systemic / …
# [38] = group: maternal, reproductive / offspring survival early / litter viability other / litter viability
# [39] = group: systemic, systemic / in life observation / body weight / body weight + systemic / in life observation / clinical signs / inappetence
# [40] = group: systemic, systemic / in life observation / body weight / body weight + systemic / in life observation / clinical signs / inappetence + systemic / in …
# [41] = systemic / hematology / erythrocyte (rbc) count differential / erythrocyte (rbc) + systemic / hematology / hemoglobin (hgb) / hemoglobin (…
# [42] = systemic / in life observation / clinical signs / abnormal feces
# [43] = systemic / in life observation / clinical signs / abnormal respiratory sounds + systemic / in life observation / clinical signs / drooping …
# [44] = systemic / hematology / mean corpuscular (cell) volume (mcv) / mean corpuscular (cell) volume (mcv) + systemic / pathology microscopic / …
# [45] = systemic / in life observation / body weight / body weight gain + systemic / in life observation / food consumption / food consumption
# [46] = group: developmental, developmental / developmental malformation / general / crown-rump length + systemic / in life observation / body weight / fetal weight
# [47] = group: maternal, reproductive / reproductive performance / resorptions / resorptions + systemic / in life observation / body weight / body weight + systemic…
structure (smiles),measurement,setting,value
FC(F)(F)c1ccc2c(c1)[C@H]1CNC[C@@H]2C1,LEL,rat [1],3 mg/kg/day
same,LOAEL,rat [1],> 3 mg/kg/day
same,NEL,rat [1],1 mg/kg/day
same,NOAEL,rat [1],≥ 3 mg/kg/day
same,LEL,"rat [2]; group: developmental, developmental / developmental malformation / bone / delayed ossification + developmental / developmental malformation / bone / fused + …",3 mg/kg/day
same,LOAEL,rat [2]; [23],> 7 mg/kg/day
same,NOAEL,rat [2]; [23],≥ 7 mg/kg/day
same,LOAEL,rat [2]; [24],> 7 mg/kg/day
same,NOAEL,rat [2]; [24],≥ 7 mg/kg/day
same,LEL,rat [2]; [25],1 mg/kg/day
same,NEL,rat [2]; [25],< 1 mg/kg/day
same,LOAEL,rat [3]; [26],> 7 mg/kg/day
same,NOAEL,rat [3]; [26],≥ 7 mg/kg/day
same,LEL,rat [3]; [27],1 mg/kg/day
same,NEL,rat [3]; [27],< 1 mg/kg/day
CCCCCCCCCCCC[N+](C)(C)Cc1ccccc1.[Cl-],LEL,rat [4],88 mg/kg/day
same,LOAEL,rat [4],88 mg/kg/day
same,NEL,rat [4],44 mg/kg/day
same,NOAEL,rat [4],44 mg/kg/day
same,LOAEL,rat [5]; systemic / in life observation / body weight / body weight + systemic / in life observation / body weight / body weight gain,62 mg/kg/day
same,NEL,rat [5]; [26],6.3 mg/kg/day
same,NOAEL,rat [5]; [26],31.2 mg/kg/day
same,LEL,rat [5]; systemic / in life observation / food consumption / food consumption + systemic / pathology gross / stomach / discolored,31.2 mg/kg/day
same,LEL,mouse,229 mg/kg/day
same,LOAEL,mouse,229 mg/kg/day
same,NEL,mouse,73.4 mg/kg/day
same,NOAEL,mouse,73.4 mg/kg/day
CN(C[C@@H](CC[N+]12CCC(C3CCCCC3)(CC1)CC2)c1ccc(Cl)c(Cl)c1)C(=O)c1cc(C(F)(F)F)cc(C(F)(F)F)c1.CS(=O)(=O)[O-],LEL,dog,2 mg/kg/day
same,LOAEL,dog,> 2 mg/kg/day
same,NEL,dog,< 2 mg/kg/day
same,NOAEL,dog,≥ 2 mg/kg/day
same,LEL,rat [6],2 mg/kg/day
same,LOAEL,rat [6],> 2 mg/kg/day
same,NEL,rat [6],< 2 mg/kg/day
same,NOAEL,rat [6],≥ 2 mg/kg/day
C[C@@H](Oc1ccc(CNC(=O)c2cccnc2Oc2ccc3c(c2)OCO3)c(F)c1)C(=O)O,LEL,primate [7]; [28],5 mg/kg/day
same,NEL,primate [7]; [28],< 5 mg/kg/day
same,LOAEL,primate [7]; [29],> 30 mg/kg/day
same,NOAEL,primate [7]; [29],≥ 30 mg/kg/day
same,LEL,primate [8],30 mg/kg/day
same,LOAEL,primate [8],> 30 mg/kg/day
same,NEL,primate [8],< 30 mg/kg/day
same,NOAEL,primate [8],≥ 30 mg/kg/day
same,LEL,rat [9]; [30],120 mg/kg/day
same,NEL,rat [9]; systemic / in life observation / food consumption / food consumption + systemic / pathology gross / intestine large / dilatation,30 mg/kg/day
same,LOAEL,rat [9]; [31],> 750 mg/kg/day
same,NOAEL,rat [9]; [31],≥ 750 mg/kg/day
same,LOAEL,rat [10]; [32],> 1000 mg/kg/day
same,NEL,rat [10]; [32],50 mg/kg/day
same,NOAEL,rat [10]; [32],≥ 1000 mg/kg/day
same,LEL,rat [10]; systemic / in life observation / body weight / body weight + systemic / in life observation / clinical signs / drooping eyelids (ptosis) + …,400 mg/kg/day
same,LOAEL,rat [11]; [33],> 1000 mg/kg/day
same,NOAEL,rat [11]; [33],≥ 1000 mg/kg/day
same,LEL,rat [11]; [34],400 mg/kg/day
same,NEL,rat [11]; [34],< 400 mg/kg/day
same,LEL,rat [12]; [35],400 mg/kg/day
same,LOAEL,rat [12]; [35],> 1000 mg/kg/day
same,NOAEL,rat [12]; [35],≥ 1000 mg/kg/day
same,LOAEL,rat [12]; [24],> 1000 mg/kg/day
same,NEL,rat [12]; [24],120 mg/kg/day
same,NOAEL,rat [12]; [24],≥ 1000 mg/kg/day
same,LEL,"rat [12]; group: maternal, systemic / in life observation / clinical signs / salivation + systemic / in life observation / food consumption / food consumption + …",400 mg/kg/day
same,LEL,primate [13]; [36],100 mg/kg/day
same,NEL,primate [13]; [36],< 100 mg/kg/day
same,LOAEL,primate [13]; [37],> 1000 mg/kg/day
same,NOAEL,primate [13]; [37],≥ 1000 mg/kg/day
same,LEL,rabbit [14]; [38],600 mg/kg/day
same,LOAEL,rabbit [14]; [38],> 600 mg/kg/day
same,NEL,rabbit [14]; [38],400 mg/kg/day
same,NOAEL,rabbit [14]; [38],≥ 600 mg/kg/day
same,LEL,rabbit [14]; [39],120 mg/kg/day
same,NEL,rabbit [14]; [39],< 120 mg/kg/day
same,LOAEL,rabbit [14]; [40],> 600 mg/kg/day
same,NOAEL,rabbit [14]; [40],≥ 600 mg/kg/day
same,LEL,rabbit [15],200 mg/kg/day
same,LOAEL,rabbit [15],> 200 mg/kg/day
same,NEL,rabbit [15],60 mg/kg/day
same,NOAEL,rabbit [15],≥ 200 mg/kg/day
same,LOAEL,rat [16]; [41],> 2000 mg/kg/day
same,NOAEL,rat [16]; [41],≥ 2000 mg/kg/day
same,NEL,rat [16]; systemic / hematology / neutrophils / neutrophils + systemic / in life observation / body weight / body weight + systemic / in life …,10 mg/kg/day
same,LEL,rat [16]; systemic / pathology microscopic / mesentery / infiltration cellular,50 mg/kg/day
same,LEL,primate [17],200 mg/kg/day
same,LOAEL,primate [17],> 1000 mg/kg/day
same,NEL,primate [17],30 mg/kg/day
same,NOAEL,primate [17],≥ 1000 mg/kg/day
same,LOAEL,rabbit [18]; [26],> 750 mg/kg/day
same,NOAEL,rabbit [18]; [26],≥ 750 mg/kg/day
same,LEL,rabbit [18]; [42],120 mg/kg/day
same,NEL,rabbit [18]; [42],< 120 mg/kg/day
same,LOAEL,rat [19]; [43],> 1000 mg/kg/day
same,NEL,rat [19]; [43],50 mg/kg/day
same,NOAEL,rat [19]; [43],≥ 1000 mg/kg/day
same,LEL,rat [19]; systemic / in life observation / clinical signs / reduced activity + systemic / in life observation / clinical signs / salivation,400 mg/kg/day
CCN(CC)C(=O)c1cc(S(=O)(=O)Cc2ccccc2)c(N2CCC(c3ccccc3)CC2)cc1N(CC)CCN(C)C [HMR1171],NEL,rat [20]; systemic / clinical chemistry / alkaline phosphatase (alp/alk) / alkaline phosphatase (alp/alk) + systemic / clinical chemistry / …,5 mg/kg/day
same,LEL,rat [20]; [44],20 mg/kg/day
same,LOAEL,rat [20]; [44],20 mg/kg/day
same,NOAEL,rat [20]; [44],5 mg/kg/day
same,LOAEL,rabbit [21]; [45],> 240 mg/kg/day
same,NEL,rabbit [21]; [45],60 mg/kg/day
same,NOAEL,rabbit [21]; [45],≥ 240 mg/kg/day
same,LEL,rabbit [21]; [30],120 mg/kg/day
same,LEL,rat [22]; [46],60 mg/kg/day
same,LOAEL,rat [22]; [46],60 mg/kg/day
same,NEL,rat [22]; [46],10 mg/kg/day
same,NOAEL,rat [22]; [46],10 mg/kg/day
same,LEL,rat [22]; [47],60 mg/kg/day
same,LOAEL,rat [22]; [47],60 mg/kg/day
same,NEL,rat [22]; [47],10 mg/kg/day
same,NOAEL,rat [22]; [47],10 mg/kg/day
